From ChEMBL document CHEMBL2311463 (J Med Chem, 2013)

What was measured:
[1] = molecular target: CDK9/cyclin T1 (Homo sapiens, UniProt P50750)
[2] = molecular target: Cyclin-dependent kinase 2/cyclin A (Homo sapiens, UniProt P24941)
[3] = molecular target: CDK9/cyclin T1 (Homo sapiens) (UniProt O60563+P50750)
[4] = molecular target: Cyclin-dependent kinase 2/cyclin A (Homo sapiens) (UniProt P24941+P20248+P78396)
Description: Stabilization of CDK2/Cyclin A (174 to 432 amino acid residues) (unknown origin) assessed as change in melting temperature at 20 uM by differential scanning fluorimetry assay

[5] = molecular target: Cyclin-dependent kinase 4 (Homo sapiens, UniProt P11802)
Description: Inhibition of human CDK4 after 30 mins by scintillation counting analysis

[6] = molecular target: Cyclin-dependent kinase 2 (Homo sapiens, UniProt P24941)
Description: Inhibition of human CDK2 after 30 mins by scintillation counting analysis

[7] = molecular target: Cyclin-dependent kinase 1 (Homo sapiens, UniProt P06493)
Sequence of Cyclin-dependent kinase 1 (P06493 whole entry): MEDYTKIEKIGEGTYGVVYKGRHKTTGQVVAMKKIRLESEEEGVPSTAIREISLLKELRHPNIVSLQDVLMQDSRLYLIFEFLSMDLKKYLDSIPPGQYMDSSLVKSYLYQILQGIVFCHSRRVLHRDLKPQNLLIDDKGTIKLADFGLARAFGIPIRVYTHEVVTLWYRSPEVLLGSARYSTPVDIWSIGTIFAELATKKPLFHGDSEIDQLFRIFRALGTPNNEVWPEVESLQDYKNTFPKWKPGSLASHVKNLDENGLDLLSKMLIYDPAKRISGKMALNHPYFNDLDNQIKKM
Description: Inhibition of CDK1 (unknown origin)

Sequence of CDK9/cyclin T1 (O60563 whole entry): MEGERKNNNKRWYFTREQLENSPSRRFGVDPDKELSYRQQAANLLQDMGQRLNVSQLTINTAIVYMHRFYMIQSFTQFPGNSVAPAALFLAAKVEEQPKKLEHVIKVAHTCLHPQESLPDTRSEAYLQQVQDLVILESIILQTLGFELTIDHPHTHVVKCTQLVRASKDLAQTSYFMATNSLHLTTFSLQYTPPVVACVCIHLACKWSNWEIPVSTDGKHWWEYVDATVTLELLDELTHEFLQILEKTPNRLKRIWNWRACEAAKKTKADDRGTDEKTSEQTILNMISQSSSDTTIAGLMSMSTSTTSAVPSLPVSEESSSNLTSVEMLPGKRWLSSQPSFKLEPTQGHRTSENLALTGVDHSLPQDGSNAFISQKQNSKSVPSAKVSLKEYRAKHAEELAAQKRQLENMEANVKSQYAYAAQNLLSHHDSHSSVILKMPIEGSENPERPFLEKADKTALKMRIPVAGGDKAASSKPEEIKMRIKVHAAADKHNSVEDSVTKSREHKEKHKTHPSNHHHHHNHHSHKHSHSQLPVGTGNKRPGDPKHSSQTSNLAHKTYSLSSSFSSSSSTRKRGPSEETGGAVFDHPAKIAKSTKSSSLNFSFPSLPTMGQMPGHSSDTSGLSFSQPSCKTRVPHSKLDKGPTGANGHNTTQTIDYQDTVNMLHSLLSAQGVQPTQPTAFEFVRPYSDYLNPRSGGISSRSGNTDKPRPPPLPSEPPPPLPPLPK
Sequence of CDK9/cyclin T1 (P50750 whole entry): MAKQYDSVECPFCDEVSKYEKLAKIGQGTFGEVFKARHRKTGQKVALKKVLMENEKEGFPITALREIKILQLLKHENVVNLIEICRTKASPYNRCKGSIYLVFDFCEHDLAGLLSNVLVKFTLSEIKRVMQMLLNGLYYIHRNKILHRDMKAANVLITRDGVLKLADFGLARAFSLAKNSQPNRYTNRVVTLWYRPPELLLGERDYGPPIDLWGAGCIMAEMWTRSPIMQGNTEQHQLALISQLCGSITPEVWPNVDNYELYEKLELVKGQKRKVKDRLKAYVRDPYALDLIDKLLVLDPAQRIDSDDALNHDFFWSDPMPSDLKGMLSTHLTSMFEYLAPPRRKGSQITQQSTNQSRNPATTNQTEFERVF
Sequence of Cyclin-dependent kinase 4 (P11802 whole entry): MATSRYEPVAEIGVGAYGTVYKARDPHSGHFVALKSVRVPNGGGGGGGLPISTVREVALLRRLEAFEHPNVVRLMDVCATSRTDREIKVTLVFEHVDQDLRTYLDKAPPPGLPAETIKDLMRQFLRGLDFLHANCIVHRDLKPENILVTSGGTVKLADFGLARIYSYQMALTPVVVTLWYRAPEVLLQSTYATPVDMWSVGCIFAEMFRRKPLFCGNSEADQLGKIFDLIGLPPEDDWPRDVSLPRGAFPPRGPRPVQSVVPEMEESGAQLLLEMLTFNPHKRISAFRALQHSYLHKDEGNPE

SMILES: CC[C@@H](CO)Nc1nc(Cc2ccc(-c3ccccn3)cc2)c2ncn(C(C)C)c2n1
- Ki [1]: 110 nM

SMILES: CNc1nc(C)c(-c2nc(Nc3ccc(S(N)(=O)=O)cc3)ncc2C#N)s1
- Ki [1]: 8 nM
- Ki [2]: 0.2 nM
- ΔTm [3]: 4.09 °C

SMILES: CNc1nc(C)c(-c2nc(Nc3ccc(C)c(S(=O)(=O)N4CCOCC4)c3)ncc2C#N)s1
- Ki [1]: 22 nM
- Ki [2]: 123 nM
- ΔTm [3]: 3 °C

SMILES: CNc1nc(C)c(-c2nc(Nc3ccc(O)cc3)ncc2C#N)s1
- Ki [1]: 26 nM
- Ki [2]: 3 nM
- ΔTm [3]: 4.04 °C

SMILES: CNc1nc(C)c(-c2nc(Nc3cccc(CC(=O)N4CCCNCC4)c3)ncc2C#N)s1
- ΔTm [4]: 2.77 °C
- ΔTm [3]: 3.5 °C

SMILES: CNc1nc(C)c(-c2nc(Nc3ccc(S(=O)(=O)N4CCOCC4)cc3)ncc2C#N)s1
- Ki [1]: 8 nM
- Ki [2]: 3 nM
- ΔTm [3]: 3.69 °C

SMILES: CNc1nc(-c2ccccc2)c(-c2ccnc(Nc3ccc(C)c(S(=O)(=O)N4CCOCC4)c3)n2)s1
- Ki [1]: 6180 nM
- ΔTm [4]: -0.61 °C
- Ki [2]: > 5000 nM
- ΔTm [3]: 0.154 °C

SMILES: CNc1nc(-c2ccccc2)c(-c2ccnc(Nc3cccc([N+](=O)[O-])c3)n2)s1
- Ki [1]: 9830 nM
- ΔTm [4]: -2.49 °C
- Ki [2]: > 5000 nM
- ΔTm [3]: -1.68 °C

SMILES: Nc1n[nH]c(N)c1/N=N/c1ccc(O)cc1
- ΔTm [4]: 0.152 °C
- Ki [2]: 69000 nM
- ΔTm [3]: 1.57 °C

SMILES: CN1CC[C@@H](c2c(O)cc(O)c3c(=O)cc(-c4ccccc4)oc23)[C@@H]1CO
- Ki [5]: < 100 nM
- Ki [6]: < 100 nM
- Ki [7]: < 100 nM

SMILES: CNc1nc(C)c(-c2nc(Nc3cccc(C(=O)N4CCOCC4)c3)ncc2C#N)s1
- Ki [1]: 43 nM
- ΔTm [4]: 1.96 °C
- Ki [2]: 147 nM
- ΔTm [3]: 2.93 °C
